Among the test systems are U251 CNS; M14 melanoma; A549 NSCLC; HOP-92 NSCLC; SR leukemia; MOLT-4 leukemia; IGROV1 ovarian; NCI-H522 lung; EKVX NSCLC; CCRF-CEM leukemia.
What all share (assay): inhibition of tumour cell growth, NCI panel, 48 h

Structures are written as SMILES.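 1) Cells in 96-well plates. 2) Compound, 48 h, 5 concentrations. 3) Linear interpolation between surrounding doses. 4) Unreached endpoint = highest concentration. Here, GI50 denotes the concentration required for 50% inhibition of growth. TGI: total growth inhibition.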

For the molecule `C[CH2][Sn]([CH2]C)([O]C(=O)c1cccc(F)c1)[O][Sn]([CH2]C)([CH2]C)[O]C(=O)c1cccc(F)c1`, the GI50 in the assay on U251 CNS was 16.9 µM; in the assay with M14 melanoma, 16.9 µM; with A549 NSCLC it was over 100 µM; with HOP-92 NSCLC, 16.5 µM; in the assay with SR leukemia it was 28 µM; in the assay with MOLT-4 leukemia, 31.9 µM. The GI50 in the assay with IGROV1 ovarian was over 100 µM; in the assay on NCI-H522 lung it was 1.32 µM; in the assay on EKVX NSCLC it was 15.3 µM; with CCRF-CEM leukemia, 4.28 µM. The TGI was 30.6 µM in the assay on U251 CNS; 31.3 µM in the assay on M14 melanoma; over 100 µM in the assay on A549 NSCLC; 30.1 µM in the assay on HOP-92 NSCLC; over 100 µM with SR leukemia; over 100 µM in the assay with MOLT-4 leukemia. Besides, the TGI with IGROV1 ovarian is over 100 µM; in the assay on NCI-H522 lung, 2.65 µM; in the assay with EKVX NSCLC, 29.1 µM; in the assay with CCRF-CEM leukemia, 34.7 µM.
In the case of `C[CH2][Sn]([Cl])([Cl])[CH2]C`, the GI50 in the assay on U251 CNS is 27.4 µM; with M14 melanoma, 24.1 µM; in the assay on A549 NSCLC it was over 100 µM; with HOP-92 NSCLC, 19.7 µM; in the assay on SR leukemia it was 25.3 µM; in the assay with MOLT-4 leukemia it was 29 µM. The GI50 is over 100 µM in the assay with IGROV1 ovarian, 1.16 µM in the assay with NCI-H522 lung, over 65.6 µM in the assay with EKVX NSCLC and 9.5 µM in the assay on CCRF-CEM leukemia. In addition, the TGI in the assay on U251 CNS was over 59.1 µM; in the assay with M14 melanoma, 57.7 µM; with A549 NSCLC it was over 100 µM; in the assay with HOP-92 NSCLC it was 36.2 µM; in the assay on SR leukemia, over 100 µM; in the assay on MOLT-4 leukemia, over 94.5 µM. Besides, the TGI with IGROV1 ovarian is over 100 µM; in the assay with NCI-H522 lung it was 2.67 µM; in the assay on EKVX NSCLC, over 100 µM; in the assay on CCRF-CEM leukemia, 39.9 µM.
For `N#Cc1nc2cc(F)c(F)cc2nc1-c1ccc(Cl)cc1`, the GI50 was 10.4 µM in the assay on U251 CNS; 7.93 µM with M14 melanoma; 39.3 µM in the assay on A549 NSCLC; 0.0614 µM in the assay on HOP-92 NSCLC; 1.7 µM in the assay on SR leukemia; 3.21 µM with MOLT-4 leukemia. For the same molecule, the GI50 with IGROV1 ovarian was 0.673 µM; in the assay on NCI-H522 lung, 13.5 µM; with EKVX NSCLC, 10.4 µM; in the assay on CCRF-CEM leukemia, 0.181 µM. The TGI in the assay with U251 CNS was 25 µM; with M14 melanoma it was 23.8 µM; in the assay with A549 NSCLC, over 100 µM; in the assay on HOP-92 NSCLC, 15 µM; with SR leukemia, 4.35 µM; with MOLT-4 leukemia it was over 28.3 µM. Also, the TGI is 2.31 µM in the assay on IGROV1 ovarian, over 48.2 µM with NCI-H522 lung, over 69.4 µM with EKVX NSCLC and 3.12 µM in the assay on CCRF-CEM leukemia.
`COc1ccc2c(c1)OC(N)=C(C#N)C2c1ccc(F)cc1` (centres undefined): the GI50 with U251 CNS is 3.08 µM; in the assay with M14 melanoma it was 0.529 µM; in the assay on A549 NSCLC, 4.94 µM; in the assay on HOP-92 NSCLC, 8.52 µM; with SR leukemia, 0.51 µM; in the assay with MOLT-4 leukemia it was 1.32 µM. Besides, the GI50 in the assay on IGROV1 ovarian is 2.38 µM; in the assay on NCI-H522 lung it was 0.604 µM; in the assay on EKVX NSCLC, 5.09 µM; in the assay with CCRF-CEM leukemia, 2.31 µM. Moreover, the TGI in the assay on U251 CNS was over 100 µM; with M14 melanoma, 44.2 µM; with A549 NSCLC, over 100 µM; with HOP-92 NSCLC, 75.5 µM; in the assay with SR leukemia, over 100 µM; in the assay with MOLT-4 leukemia it was over 100 µM. For the same molecule, the TGI in the assay with IGROV1 ovarian was over 100 µM; in the assay with NCI-H522 lung it was 27.1 µM; with EKVX NSCLC it was over 100 µM; in the assay on CCRF-CEM leukemia, over 100 µM.
`Oc1c(N=Nc2ccccc2)c2ccccc2c2ccc3ccccc3c12`: the TGI in the assay on U251 CNS is over 100 µM; in the assay on M14 melanoma, over 100 µM; in the assay on A549 NSCLC, over 100 µM; in the assay with HOP-92 NSCLC, over 100 µM; in the assay with SR leukemia it was 32.6 µM; in the assay on MOLT-4 leukemia it was over 100 µM. For the same molecule, the TGI in the assay on IGROV1 ovarian, with NCI-H522 lung, with EKVX NSCLC and in the assay with CCRF-CEM leukemia was over 100 µM each time.
Consider `O=P1(O)c2ccccc2Nc2cc(C(F)(F)F)ccc21`, for which the TGI in the assay with U251 CNS, with M14 melanoma, in the assay on A549 NSCLC, in the assay with HOP-92 NSCLC, in the assay on SR leukemia and in the assay on MOLT-4 leukemia was over 100 µM each time. In addition, the TGI with IGROV1 ovarian, in the assay with NCI-H522 lung, in the assay on EKVX NSCLC and in the assay with CCRF-CEM leukemia was over 100 µM each time.
As for `O=Cc1ccc(O)c2ncccc12`, the GI50 in the assay with U251 CNS is 2.4 µM; in the assay on M14 melanoma, 2.99 µM; with A549 NSCLC it was 28.1 µM; in the assay on HOP-92 NSCLC it was 5.01 µM; with SR leukemia it was 0.858 µM; with IGROV1 ovarian, 3.32 µM. The GI50 was 25.5 µM with NCI-H522 lung, 3.01 µM in the assay on EKVX NSCLC and 0.952 µM with CCRF-CEM leukemia. Besides, the TGI was 23.3 µM in the assay on U251 CNS; 26.1 µM in the assay on M14 melanoma; over 100 µM in the assay with A549 NSCLC; over 73.5 µM in the assay on HOP-92 NSCLC; over 31.8 µM in the assay with SR leukemia; over 38.8 µM with MOLT-4 leukemia. Besides, the TGI was 16.8 µM in the assay on IGROV1 ovarian, 90.8 µM in the assay with NCI-H522 lung, 23.9 µM with EKVX NSCLC and over 32 µM in the assay with CCRF-CEM leukemia.
Regarding `COC(=O)C(CC(=O)Nc1ccc(Cl)c(Cl)c1)C(=O)C(=O)NC1C2CC3CC(C2)CC1C3` (centres undefined), the TGI in the assay with U251 CNS, in the assay on M14 melanoma, in the assay on A549 NSCLC, in the assay with HOP-92 NSCLC, in the assay with SR leukemia and in the assay with MOLT-4 leukemia was over 100 µM in each case. Besides, the TGI with IGROV1 ovarian, in the assay with NCI-H522 lung, in the assay with EKVX NSCLC and in the assay with CCRF-CEM leukemia was over 100 µM each time.
For `N#CC(C#N)=C1SCC(=O)CS1`, the TGI in the assay on U251 CNS, in the assay with M14 melanoma, with A549 NSCLC, in the assay with HOP-92 NSCLC, with SR leukemia and in the assay on MOLT-4 leukemia was over 100 µM in each case. The TGI with IGROV1 ovarian, in the assay with NCI-H522 lung, with EKVX NSCLC and with CCRF-CEM leukemia was over 100 µM each time.
As for `NC(CCSC(F)F)C(=O)O` (centres undefined), the TGI with U251 CNS, in the assay on M14 melanoma, in the assay with A549 NSCLC, in the assay with HOP-92 NSCLC, in the assay with SR leukemia and in the assay with MOLT-4 leukemia was over 100 µM throughout. In addition, the TGI with IGROV1 ovarian, in the assay on NCI-H522 lung, in the assay on EKVX NSCLC and in the assay on CCRF-CEM leukemia was over 100 µM each time.

Source of the values: PubChem BioAssay (NCI).
